Measurements published in patent publication US7312219B2, “Heteroaromatic inhibitors of fructose 1,6-bisphosphatase” (Metabasis Therapeutics, Inc., priority 1998, dated 2007).
Counter-ions that a name gives are not always drawn. Like-named read-outs stand apart in the source and are kept apart here.

Tests used:
[1] = Estimation of the Oral Bioavailability of Phosphonic Acids and their Prodrugs; type: in vivo, rat; conditions: fasted rats, oral 10–50 mg/kg, 24 h urinary recovery of phosphonic acid, oral vs intravenous
Protocol: Phosphonic acids were dissolved in water, and the solution adjusted to neutrality with sodium hydroxide. Prodrugs were dissolved in 10% ethanol/90% polyethlene glycol (mw 400). Compound was administered by oral gavage to 18-hour fasted Sprague-Dawley rats (220–250 g) at doses ranging from 10–50 mg/kg. The rats were subsequently placed in metabolic cages and urine was collected for 24 hours. The quantity of phosphonic acid excreted into urine was determined by HPLC analysis as described in Example G. In a separate study, urinary recovery was determined following intravenous (tail vein) administration of compound (in the case of the prodrugs, the appropriate parent phosphonic acid was administered i.v.).

[2] = Oral Absorption Determinations of Prodrugs in the Rat; conditions: normal fed rats; for % excreted i.p.: 30 mg/kg intraperitoneal; for % excreted i.p. / % excreted p.o.: parent compound 3.1 in 24 h urine; for % excreted p.o.: 30 mg/kg oral gavage; for % absorption: 30 mg/kg, urinary excretion oral vs intraperitoneal
Fasted Rat = test: Glucose Lowering Following Oral Administration to the Fasted Rat; type: in vivo; conditions: oral gavage, 18-hour fasted rats, relative to saline controls
Protocol: Compounds were administered by oral gavage to 18-hour fasted, Sprague Dawley rats (250–300 g, n =3/4/group). Phosphonic acids were prepared in deionized water, and the solution adjusted to neutrality with solidum hydroxide. Prodrugs were dissolved in polyethylene glycol (mw 400). […] The table below indicates the maximum glucose lowering achieved relative to control animals dosed with saline.

Fasted Rats = test: Blood Glucose Lowering Following Intravenous Administration to Fasted Rats; type: in vivo, rat; conditions: 18 h fasted Sprague Dawley rats, 1 hour, relative to saline-treated controls
Protocol: Inhibitors were disolved in water and the solution adjusted to neutrality with NaOH. Blood samples were obtained from the tail vein of conscious animals just prior to injection and after 1 hour. Blood glucose was measured using a HemoCue Inc. glucose analyzer according to the instructions of the manufacturer.

[3] = test system: Gluconeogenesis in Rat Hepatocytes; test: Inhibition of Gluconeogenesis in Rat Hepatocytes; type: cell-based; conditions: 10 mM lactate, 1 mM pyruvate, 1 hour incubation, read-out: IC50 Glucose Production
Protocol: Hepatocytes were prepared from overnight fasted Sprague-Dawley rats (250–300 g) according to the procedure of Berry and Friend (Berry, M. N., Friend, D. S., 1969, J. Cell. Biol. 43, 506–520) as modified by Groen (Groen, A. K., Sips, H. J., Vervoorn, R. C., Tager, J. M. , 1982, Eur. J. Biochem. 122, 87–93). Hepatocytes (75 mg wet weight/ml) were incubated in 1 ml Krebs-bicarbonate buffer containing 10 mM Lactate, 1 mM pyruvate, 1 mg/ml BSA, and test compound concentrations from 1 to 500 μM. Incubations were carried out in a 95% oxygen, 5% carbon dioxide atmosphere in closed, 50-ml Falcon tubes submerged in a rapidly shaking water bath (37° C.). After 1 hour, an aliquot (0.25 ml) was removed, transferred to an Eppendorf tube and centrifuged. 50 μl of supernatant was then assayed for glucose content using a Sigma Glucose Oxidase kit as per the manufacturer's instructions.

[4] = Analysis of Drug Levels and Liver Accumulation in Rats; type: in vivo, rat; conditions: fasted rats, 10 mgs/kg i.v., one hour post injection; for concentration at 1 h: Sprague-Dawley, rat, iv, read-out: Plasma Conc.; for concentration at 1 h / Plasma Conc.: plasma
Protocol: The compound was dissolved in water and the solution adjusted to neutrality with NaOH. One hour post injection rats were anesthetized with halothane and a liver biopsy (approx. 1 g) was taken as well as a blood sample (2 ml) from the posterior vena cava. A heparin flushed syringe and needle were used for blood collection. The liver sample was immediately homogenized in ice-cold 10% perchloric acid (3 ml), centrifuged, and the supernatant neutralized with ⅓rd volume of 3 M KOH/3 M KHCO3. […] Plasma was prepared from the blood sample by centrifugation and extracted by addition of methanol to 60% (v/v). The methanolic extract was clarified by centrifugation and filtration and then analyzed by HPLC as described above.

[5] = Rattus norvegicus, iv, 10 mg/kg i.v.

With `Cc1nc(-c2ccc(P3(=O)OCCC(c4ccncc4)O3)o2)c(CC(C)C)s1` (stereo not shown) [Compound 19.17, 5-Isobutyl-2-methyl-4-{2-[5-(1-(4-pyridyl)-1,3-propyl)phosphono]furanyl}-thiazole] the “% Oral bioavailability” value [1] was 16.2%.
For `CC(C)Cc1sc(N)nc1-c1ccc(P2(=O)OCCC(c3ccc(F)c(Br)c3)O2)o1` (stereo not shown) [Compound 19.42, 2-Amino-5-isobutyl-4-{2-[5-(1-(4-fluoro-3-bromophenyl)-1,3-propyl)phosphono]furanyl}thiazole], the “% excreted i.p.” value [2] was 15.4%, the “% excreted p.o.” value [2] was 8.1% and the “% absorption” value [2] was 52%. For the same compound, the “% Oral bioavailability” value [1] was 10% and the “% Glucose Lowering (maximum)” value (Fasted Rat; dose 30 mg/kg, time point 3 h) was 26%.
With `CCc1sc(N)nc1C(=O)OCP(=O)(O)O` [Compound 18.3, 2-amino-5-ethyl-4-phosphonomethoxycarbonylthiazole] the inhibition in vivo at 10 mg/kg (Fasted Rats; [5]) was 75%.
`Nc1nc(-c2ccc(P(=O)(O)O)o2)c(-c2cccs2)s1` [Compound 6.3] showed an inhibition in vivo at 10 mg/kg (Fasted Rats; [5]) of 24%.
In the case of `CCOC(=O)OCOP(=O)(OCOC(=O)OCC)c1ccc(-c2nc(N)sc2CC(C)C)o1` [Compound 20.9, 2-Amino-5-isobutyl-4-{-2-[5-bis(ethoxycarbonyloxymethyl)phosphono]-furanyl}thiazole], the IC50 [3] is reported as 2200 nM, the “% Oral bioavailability” value [1] is reported as 17.4% and the “% Glucose Lowering (maximum)” value (Fasted Rat; dose 90 mg/kg, time point 3 h) is reported as 67%.
With `CCCSc1sc(N)nc1-c1ccc(P(=O)(O)O)o1` [Compound 3.58, 2-Amino-5-propylthio-4-[2-(5-phosphono)furanyl]thiazole hydrobromide] the IC50 ([3]; Hepatocyte) was 1200 nM and the inhibition in vivo at 10 mg/kg (Fasted Rats; [5]) was 82%.
`CCc1c(SC#N)cc(OCP(=O)(O)O)c2nc(N)sc12` [Compound 41.1, 2-amino-7-ethyl-6-thiocyano-4-phosphonomethoxybenzothiazole] gave an inhibition in vivo at 10 mg/kg (Fasted Rats; [5]) of 80%.
In the case of `Cc1nc(-c2ccc(P(=O)(OCOC(=O)C(C)(C)C)OCOC(=O)C(C)(C)C)o2)cs1` [Compound 20.1, 2-methyl-4-[2-(5-dipivaloyloxymethylphosphono)furanyl]-thiazole], the “% Oral bioavailability” value [1] is reported as 46%.
With `CCCc1oc(N)nc1-c1ccc(P(=O)(O)O)o1` [Compound 10.2, 2-Amino-5-propyl-4-[2-(5-phosphono)furanyl]oxazole] the concentration at 1 h [4] was 22 ± 1.5 µM, the bioavailability ([1]; Sprague-Dawley, rat, urine) was 22% and the “% Glucose Lowering (maximum)” value (Fasted Rat; dose 90 mg/kg, time point 3 h) was 36%.
In the case of `Cc1ccc(OCP(=O)(O)O)c2nc(N)sc12` [Compound 35.3, 2-Amino-4-phosphonomethoxy-7-methylbenzothiazole], the inhibition in vivo at 10 mg/kg (Fasted Rats; [5]) is reported as 65%.
For `CCc1sc(N)nc1-c1ccc(P(=O)(O)O)o1` [Compound 3.21, 2-Amino-5-ethyl-4-[2-(5-phosphono)furanyl]thiazole], the “Plasma Conc.” value [4] was 25 ± 1 µM.
With `Nc1ccc(C2CC2)c(-c2ccc(P(=O)(O)O)o2)n1` [Compound 15.20, 2-Amino-5-cyclopropyl-6-[2-(5-phosphono)furanyl]pyridine] the concentration at 1 h [4] was 66.3 ± 3.9 µM, the “Liver Conc.” value [4] was 13.1 ± 2.3 nmol/g and the inhibition in vivo at 10 mg/kg (Fasted Rats; [5]) was 24%.
With `CC(C)Cc1sc(N)nc1-c1ccc(P(=O)(OCOC(=O)C(C)(C)C)OCOC(=O)C(C)(C)C)o1` [Compound 20.4, 2-Amino-5-isobutyl-4-{2-[5-(dipivaloyloxymethyl)phosphono]furanyl}thiazole] the “% Oral bioavailability” value [1] was 11%.
`CC(C)Cc1sc(N)nc1-c1ccc(P2(=O)OCCC(c3ccncc3)O2)o1` (stereo not shown) [Compound 19.18, 2-Amino-5-isobutyl-4-[2-{5-[1-(4-pyridyl)-propan-1,3-yl]phosphonol}furanyl)-thiazole] showed an IC50 [3] of 10000 nM.
For `CC(C)Cc1sc(N)nc1-c1ccc(P2(=O)OCCC(c3cc(Cl)cc(Cl)c3)O2)o1` (stereo not shown) [Compound 19.48, 2-Amino-5-isobutyl-4-{2-[5-(1-(3,5-dichlorophenyl)-1,3-propyl)phosphono]furanyl}thiazole], the “% excreted i.p.” value [2] was 11.3%, the “% excreted p.o.” value [2] was 11.6% and the “% absorption” value [2] was 100%. The IC50 [3] was 6500 nM, the “% Oral bioavailability” value [1] was 12% and the “% Glucose Lowering (maximum)” value (Fasted Rat; dose 30 mg/kg, time point 2 h) was 63%.
Compound `Cc1nc(-c2ccc(P(=O)(O)O)o2)c(CC(C)C)s1` [Compound 3.2, 2-Methyl-5-isobutyl4-[2-(5-phosphono)furanyl]thiazole] has an inhibition in vivo at 30 mg/kg (Fasted Rats; Rattus norvegicus, iv, 30 mg/kg i.v.) of 55%.
Work on `CCCc1cnc(N)nc1-c1ccc(P(=O)(O)O)o1` [Compound 16.1, 2-amino-5-propyl-4-[2-(5-phosphono)furanyl]pyrimidine] yielded a melting point of 258 to 259 °C.
For `Nc1nc(-c2ccc(P(=O)(O)O)o2)c(C2CC2)s1` [Compound 3.27, 2-Amino-5-cyclopropyl-4-[2-(5-phosphono)furanyl]thiazole], the “% Oral bioavailability” value [1] was 32% and the “% Glucose Lowering (maximum)” value (Fasted Rat; dose 60 mg/kg, time point 3 h) was 61%.
Work on `CCOC(=O)c1sc(N)nc1-c1ccc(P(=O)(O)O)o1` [Compound 3.25, 2-Amino-5-ethoxycarbonyl-4-[2-(5-phosphono)furanyl]thiazole] yielded an inhibition in vivo at 10 mg/kg (Fasted Rats; [5]) of 76%.
In the case of `Cc1nc(-c2ccc(P(=O)(OCOC(=O)C(C)(C)C)OCOC(=O)C(C)(C)C)o2)c(CC(C)C)s1` [Compound 20.3, 2-Methyl-5-isobutyl-4-{2-[5-(dipivaloyloxymethyl)phosphono]furanyl}thiazole], the “% Oral bioavailability” value [1] is reported as 17.5%.
In the case of `CC(C)Cc1sc(N)nc1-c1ccc(P2(=O)OCCC(c3cccc(Cl)c3)O2)o1` (stereo not shown) [Compound 19.46, 2-Amino-5-isobutyl-4-{2-[5-(1-(3-chlorophenyl)-1,3-propyl)phosphono]furanyl}thiazole], the “% Glucose Lowering (maximum)” value (Fasted Rat; dose 30 mg/kg, time point 2 h) is reported as 53%.
With “2-Methyl-5-isobutyl-4-{2-[5-bis(thiobenzoylmethyl)phosphono]furanyl}thiazole [Compound 19.9]” the “% Oral bioavailability” value [1] was 18.5%.
For `CC(C)Cc1sc(Br)nc1-c1ccc(P(=O)(O)O)o1` [Compound 5.1, 2-bromo-5-isobutyl-4-[2-(5-phosphono)furanyl]thiazole], the “Liver Conc.” value [4] was 6.7 ± 0.7 nmol/g and the “Plasma Conc.” value [4] was 100 ± 5.7 µM.
In the case of `CSc1[se]c(N)nc1-c1ccc(P(=O)(O)O)o1` [Compound 3.71, 2-Amino-5-methylthio-4-[2-(5-phosphono)furanyl]selenazole], the “i.v. Glucose Lowering, %” value (Fasted Rats; 10 mg/kg i.v.) is reported as 72%.
In the case of `CCOC(=O)CNP(=O)(Oc1ccccc1)c1ccc(-c2nc(N)sc2CC(C)C)o1` (stereo not shown) [Compound 31.8, 2-amino-5-isobutyl-4-{2-[5-(O-phenyl-N-ethoxycarbonylmethyl)phosphonamido]furanyl}thiazole], the IC50 [3] is reported as 3000 nM and the “% Oral bioavailability” value [1] is reported as 14%.
For `COC(=O)C(C)NP(=O)(Oc1ccccc1)c1ccc(-c2nc(N)sc2CC(C)C)o1` (stereo not shown) [Compound 31.6, 2-amino-5-isobutyl-4-{2-[5-(O-phenyl-N-(1-methoxycarbonyl)ethyl)phosphonamido]furanyl}thiazole], the IC50 [3] was 2300 nM, the “% Oral bioavailability” value [1] was 19% and the “% Glucose Lowering (maximum)” value (Fasted Rat; dose 10 mg/kg, time point 3 h) was 60%.
In the case of `CCCSc1oc(N)nc1-c1ccc(P(=O)(O)O)o1` [Compound 10.43, 2-Amino-5-propylthio-4-[2-(5-phosphono)furanyl]oxazole], the inhibition in vivo at 10 mg/kg (Fasted Rats; [5]) is reported as 61%.
With `Nc1nc(C(=O)OCP(=O)(O)O)c(Br)s1` [Compound 18.2, 2-amino-5-bromo-4-phosphonomethoxycarbonylthiazole] the inhibition in vivo at 10 mg/kg (Fasted Rats; [5]) was 80%.
